Biological target: T1, PERK (Homo sapiens, UniProt Q9NZJ5)
T1 construct: GST-PERK (536-1116) cytoplasmic domain was purchased from Invitrogen; purchased Invitrogen PV5106
T1 sequence (Q9NZJ5 536-1116): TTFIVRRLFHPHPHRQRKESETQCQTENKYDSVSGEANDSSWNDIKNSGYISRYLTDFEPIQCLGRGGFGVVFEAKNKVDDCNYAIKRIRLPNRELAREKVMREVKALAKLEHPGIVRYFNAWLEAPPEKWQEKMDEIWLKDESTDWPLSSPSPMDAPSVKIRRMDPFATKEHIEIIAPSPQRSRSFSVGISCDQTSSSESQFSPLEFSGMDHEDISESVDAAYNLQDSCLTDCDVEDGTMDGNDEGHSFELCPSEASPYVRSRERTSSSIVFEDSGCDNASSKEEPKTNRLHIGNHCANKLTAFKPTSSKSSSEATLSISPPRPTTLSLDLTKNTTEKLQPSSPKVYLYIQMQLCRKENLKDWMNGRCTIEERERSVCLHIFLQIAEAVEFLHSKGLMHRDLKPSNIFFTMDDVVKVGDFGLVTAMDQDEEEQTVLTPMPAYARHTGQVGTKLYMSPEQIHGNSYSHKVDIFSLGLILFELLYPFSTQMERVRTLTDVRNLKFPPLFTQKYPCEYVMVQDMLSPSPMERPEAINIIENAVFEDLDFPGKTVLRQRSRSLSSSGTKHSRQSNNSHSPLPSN
Assay: PKR-like Endoplasmic Reticulum Kinase (PERK) Assay (HTRF Format)
Type: biochemical
Settings: average, in at least one set of experimental runs; read-out: average pIC50 value against PERK (converted)
Experimental: PKR-like Endoplasmic Reticulum Kinase (PERK) Assay (HTRF Format)
Source of substrate: elF2α: 6-His-Full-length human elF2α is purified from baculovirus expression in Sf9 insect cells. The elF2 protein is buffer exchanged by dialysis into PBS, chemically modified by NHS-LC-Biotin and then buffer exchanged by dialysis into 50 mm TRIS pH 7.2/250 mM NaCl/5 mM DTT. Protein is aliquoted and stored at −80° C.
Assays were performed by adding GST-PERK solution to assay plates containing compounds and pre-incubated for 30 minutes at room temperature. The reaction is initiated by the addition of ATP and EIF2α substrate solution. Quench solution is added following a one hour incubation at room temperature. The plates are covered for 2 hours at room temperature prior to determination of signal. The resulting signal is quantified on a Viewlux Reader (PerkinElmer). The APC Signal is normalized to the Europium signal by transforming the data through an APC/Eu calculation.
Compounds under analysis were dissolved in DMSO to 1.0 mM and serially diluted 1 to 3 with DMSO through eleven dilutions. 0.1 μl of each concentration was transferred to the corresponding well of an assay plate. This creates a final compound concentration range from 0.00017 to 10 μM.
The data for concentration response curves were plotted as % Inhibition calculated with the data reduction formula 100*(1−(U1−C2)/(C1−C2)) versus concentration of compound where U is the unknown value, C1 is the average control value obtained for 1% DMSO, and C2 is the average control value obtained for 0.1 M EDTA. Data were fitted with a curve described by:
where A is the minimum y, B is the maximum y concentration [M], D is the slope factor, and x is the log10 of the compound.
In the above data, pIC50 is defined as −log(IC50) where the IC50 value is expressed in molar units.

| SMILES | IC50 [nM] |
| --- | --- |
| CN1CC(n2cc(-c3ccc4c(c3)CCN4C(=O)Cc3cccc(C(F)(F)F)c3)c3c(N)ncnc32)C1 [Example 133, 7-(1-methyl-3-azetidinyl)-5-(1-{[3-(trifluoromethyl)phenyl]acetyl}-2,3-dihydro-1H-indol-5-yl)-7H-pyrrolo[2,3-d]pyrimidin-4-amine] | ≤ 1 |
| Cc1ccccc1CC(=O)N1CCc2cc(-c3cn(C)c4ncnc(N)c34)ccc21 [Example 33, 7-methyl-5-{1-[(2-methylphenyl)acetyl]-2,3-dihydro-1H-indol-5-yl}-7H-pyrrolo[2,3-d]pyrimidin-4-amine] | ≤ 0.316 |
| Cn1nc(-c2ccc3c(c2)CCN3C(=O)Cc2cc(F)cc(F)c2F)c2c(N)ncnc21 [Example 55, 1-methyl-3-{1-[(2,3,5-trifluorophenyl)acetyl]-2,3-dihydro-1H-indol-5-yl}-1H-pyrazolo[3,4-d]pyrimidin-4-amine] | ≤ 2.51 |
| Cn1cc(-c2ccc3c(c2F)CCN3C(=O)Cc2cc(F)ccc2F)c2c(N)ncnc21 [Example 114, 5-{1-[(2,5-difluorophenyl)acetyl]-4-fluoro-2,3-dihydro-1H-indol-5-yl}-7-methyl-7H-pyrrolo[2,3-d]pyrimidin-4-amine] | ≤ 0.316 |
| Cc1cccc(CC(=O)N2CCc3cc(-c4nn(C(C)C)c5ncnc(N)c45)ccc32)c1 [Example 82, 1-(1-methylethyl)-3-{1-[(3-methylphenyl)acetyl]-2,3-dihydro-1H-indol-5-yl}-1H-pyrazolo[3,4-d]pyrimidin-4-amine] | ≤ 2.51 |
| NCCc1cnc(N)c2c(-c3ccc4c(c3F)CCN4C(=O)Cc3cc(F)ccc3F)coc12 [Example 146, 7-(2-aminoethyl)-3-{1-[(2,5-difluorophenyl)acetyl]-4-fluoro-2,3-dihydro-1H-indol-5-yl}furo[3,2-c]pyridin-4-amine] | ≤ 2.51 |
| Cn1cc(-c2ccc3c(c2)CCN3C(=O)Cc2cc(F)cc(F)c2F)c2c(N)ncnc21 [Example 90, 7-methyl-5-{1-[(2,3,5-trifluorophenyl)acetyl]-2,3-dihydro-1H-indol-5-yl}-7H-pyrrolo[2,3-d]pyrimidin-4-amine] | ≤ 0.316 |
| Cn1cc(-c2ccc3c(c2F)CCN3C(=O)Cc2ccc(F)cc2)c2c(N)ncnc21 [Example 141, 5-{4-fluoro-1-[(4-fluorophenyl)acetyl]-2,3-dihydro-1H-indol-5-yl}-7-methyl-7H-pyrrolo[2,3-d]pyrimidin-4-amine] | ≤ 0.316 |
| Cc1cc(C)n(CC(=O)N2CCc3cc(-c4cn(C)c5ncnc(N)c45)ccc32)n1 [Example 111, 5-{1-[(3,5-dimethyl-1H-pyrazol-1-yl)acetyl]-2,3-dihydro-1H-indol-5-yl}-7-methyl-7H-pyrrolo[2,3-d]pyrimidin-4-amine] | ≤ 1 |
| Cn1cc(-c2cnc(N)c3c(-c4ccc5c(c4)CCN5C(=O)Cc4ccccc4)csc23)cn1 [Example 14, 7-(1-methyl-1H-pyrazol-4-yl)-3-[1-(phenylacetyl)-2,3-dihydro-1H-indol-5-yl]thieno[3,2-c]pyridin-4-amine] | ≤ 2.51 |
| Cc1cc(C)n(CC(=O)N2CCc3c2ccc(-c2cn(C)c4ncnc(N)c24)c3F)n1 [Example 138, 5-{1-[(3,5-dimethyl-1H-pyrazol-1-yl)acetyl]-4-fluoro-2,3-dihydro-1H-indol-5-yl}-7-methyl-7H-pyrrolo[2,3-d]pyrimidin-4-amine] | ≤ 2.51 |
| Cc1cc(F)cc(CC(=O)N2CCc3cc(-c4nn(C)c5ncnc(N)c45)ccc32)c1 [Example 29, 3-{1-[(3-fluoro-5-methylphenyl)acetyl]-2,3-dihydro-1H-indol-5-yl}-1-methyl-1H-pyrazolo[3,4-d]pyrimidin-4-amine] | ≤ 0.316 |
| Cc1ccc(C)c(CC(=O)N2CCc3cc(-c4nn(C)c5ncnc(N)c45)ccc32)c1 [Example 28, 3-{1-[(2,5-dimethylphenyl)acetyl]-2,3-dihydro-1H-indol-5-yl}-1-methyl-1H-pyrazolo[3,4-d]pyrimidin-4-amine] | ≤ 0.316 |
| Nc1ncnc2c1c(-c1ccc3c(c1)CCN3C(=O)Cc1cccc(C(F)(F)F)c1)cn2CCN1CCOCC1 [Example 127, 7-[2-(4-morpholinyl)ethyl]-5-(1-{[3-(trifluoromethyl)phenyl]acetyl}-2,3-dihydro-1H-indol-5-yl)-7H-pyrrolo[2,3-d]pyrimidin-4-amine] | ≤ 0.316 |
| Cc1cccc(CC(=O)N2CCc3cc(-c4nn(C)c5ncnc(N)c45)ccc32)c1F [Example 74, 3-{1-[(2-fluoro-3-methylphenyl)acetyl]-2,3-dihydro-1H-indol-5-yl}-1-methyl-1H-pyrazolo[3,4-d]pyrimidin-4-amine] | ≤ 1 |
| Cc1cccc(CC(=O)N2CCc3cc(-c4cn(C)c5ncnc(N)c45)ccc32)c1 [Example 37, 7-methyl-5-{1-[(3-methylphenyl)acetyl]-2,3-dihydro-1H-indol-5-yl}-7H-pyrrolo[2,3-d]pyrimidin-4-amine] | ≤ 0.316 |
| Cn1cc(-c2ccc3c(c2)CCN3C(=O)Cc2ccccc2F)c2c(N)ncnc21 [Example 34, 5-{1-[(2-fluorophenyl)acetyl]-2,3-dihydro-1H-indol-5-yl}-7-methyl-7H-pyrrolo[2,3-d]pyrimidin-4-amine] | ≤ 0.316 |
| COc1cccc(CC(=O)N2CCc3cc(-c4csc5ccnc(N)c45)ccc32)c1 [Example 23, 3-(1-{[3-(methyloxy)phenyl]acetyl}-2,3-dihydro-1H-indol-5-yl)thieno[3,2-c]pyridin-4-amine] | ≤ 2.51 |
| Nc1ncnc2scc(-c3ccc4c(c3)CCN4C(=O)Cc3cc(F)ccc3F)c12 [Example 31, 5-{1-[(2,5-difluorophenyl)acetyl]-2,3-dihydro-1H-indol-5-yl}thieno[2,3-d]pyrimidin-4-amine] | ≤ 1 |
| Nc1ncc(Cl)c2occ(-c3ccc4c(c3)CCN4C(=O)Cc3cc(F)ccc3F)c12 [Example 131, 7-chloro-3-{1-[(2,5-difluorophenyl)acetyl]-2,3-dihydro-1H-indol-5-yl}furo[3,2-c]pyridin-4-amine] | ≤ 1 |
| Nc1ncc(C2=CCNCC2)c2scc(-c3ccc4c(c3)CCN4C(=O)Cc3ccccc3)c12 [Example 19, 3-[1-(phenylacetyl)-2,3-dihydro-1H-indol-5-yl]-7-(1,2,3,6-tetrahydro-4-pyridinyl)thieno[3,2-c]pyridin-4-amine] | ≤ 2.51 |
| Cc1cccc(CC(=O)N2CCc3cc(-c4cn(C5CNC5)c5ncnc(N)c45)ccc32)c1 [Example 92, 7-(3-azetidinyl)-5-{1-[(3-methylphenyl)acetyl]-2,3-dihydro-1H-indol-5-yl}-7H-pyrrolo[2,3-d]pyrimidin-4-amine] | ≤ 1 |
| Cc1cccc(CC(=O)N2CCc3cc(-c4cncc5[nH]nc(N)c45)ccc32)c1 [Example 130, 4-{1-[(3-methylphenyl)acetyl]-2,3-dihydro-1H-indol-5-yl}-1H-pyrazolo[3,4-c]pyridin-3-amine] | ≤ 0.316 |
| Cc1cccc(CC(=O)N2CCc3cc(-c4cn(C)c5ncnc(N)c45)ccc32)n1 [Example 121, 7-methyl-5-{1-[(6-methyl-2-pyridinyl)acetyl]-2,3-dihydro-1H-indol-5-yl}-7H-pyrrolo[2,3-d]pyrimidin-4-amine] | ≤ 2.51 |
| Cn1cc(-c2ccc3c(c2)CCN3C(=O)Cc2ccc(F)cc2)c2c(N)ncnc21 [Example 93, 5-{1-[(4-fluorophenyl)acetyl]-2,3-dihydro-1H-indol-5-yl}-7-methyl-7H-pyrrolo[2,3-d]pyrimidin-4-amine] | ≤ 2.51 |
| Cc1cccc(CC(=O)N2CCc3cc(-c4csc5ncnc(N)c45)ccc32)c1 [Example 64, 5-{1-[(3-methylphenyl)acetyl]-2,3-dihydro-1H-indol-5-yl}thieno[2,3-d]pyrimidin-4-amine] | ≤ 1 |
| Cc1cc(C)cc(CC(=O)N2CCc3cc(-c4nn(C)c5ncnc(N)c45)ccc32)c1 [Example 30, 3-{1-[(3,5-dimethylphenyl)acetyl]-2,3-dihydro-1H-indol-5-yl}-1-methyl-1H-pyrazolo[3,4-d]pyrimidin-4-amine] | ≤ 1 |

— patent publication US20120077828A1, “CHEMICAL COMPOUNDS” (priority 2010, published 2012)
